Measurements: patent US4277472A, “3,6-Disubstituted-5,7-(lower alkano)-5,6,7,8-tetrahydropyrido(4,3-C)pyridazines; their intermediates, preparation, antihypertensive use and compositions” (Byk Gulden Lomberg Chemische Fabrik GmbH, priority 1978, dated 1981)

How the values were obtained:
[1] = test system: blood pressure of genetically-hypertensive rats; experiment: antihypertensive effect in awake genetically-hypertensive rats, oral, once daily on two consecutive days; assay type: in vivo, rat (Kyoto strain); details: for relation between percentage change of the blood pressure (BP) and the applied dose / Th. E. (therapeutic effectiveness) [Serial No. 3 = 1.0]: 24-hour value of the 2nd day; for relation between percentage change of the blood pressure (BP) and the applied dose: dose in μmole/kg; for Th. E. (therapeutic effectiveness) [Serial No. 3 = 1.0]: relative to hydralazine = 1.0
Experimental: In order to determine the anti-hypertensive effect, the compounds or mixtures are administered once daily by means of an oesophageal sound in the stated doses on two consecutive days to, in each case, 8 rats (Kyoto strain) with genetically-caused hypertension. The blood pressure was measured in each case 6 and 24 hours after administration of the substance.
(§1) The measurement of the systolic blood pressure is effected with the aid of an inflatable cuff which is placed around the tail root and on which cuff there are arranged distally annularly 3 piezo-electric crystals (at a distance of 120°) for registering the pulse waves. The determination of the blood pressure is effected through inflation of the cuff and graphic recording of the pulse amplitude [analogously to H. Friebel and E. Vreden, Arch. exper. Path. u. Pharmakol., 232, 419 (1958)]. The animals were kept in an ambience of, and the experiments were carried out at from 22° to 24° C. and from 50 to 60 percent atmospheric humidity. In order to accustom the animals to the measuring process, a measurement was effected on the animals in each case 2 to 3 times daily for three days. For this purpose, as in the subsequent experiments, the rats were put into tunnel-shaped wire cages; one narrow side of the cages is slidable, the other has an opening for taking the tail through. In order to ensure a better blood flow through the tail artery during the measurement, the tails are irradiated for from 5 to 10 minutes with a red light lamp (150 watts) (distance: animal-lamp=50 cm). The air temperature immediately ambient to the tail is from 30° to 33° C. The body of the animals is covered and thus protected from direct irradiation.
(§2) Table I reproduces for the representatives of the compounds according to the invention the percentage lowering of the blood pressure after oral administration in the rat and the lethal effect after oral administration in the mouse.
% Change of blood pressure (BP) in genetically-hypertensive rats after
single daily application per os on two consecutive days (N = 8/dose)

[2] = acute oral toxicity, LD50, mouse; parameters: species or system mouse (NMRI, female); details: in vivo, per os, single administration, mice, N = 5/dose, 14 days observation
Experimental: The toxicity investigations were carried out on female NMRI mice (body weight from 22 to 26 g). The animals (5 animals per dose) receive food and water ad libitum. Different doses of the substances are administered orally. The duration of observation is 14 days. The LD50, i.e. the dose at which 50 percent of the animals die, is determined graphically from the dose effect curve.
as §2
and toxicity (per os; LD50) in mice (N = 5/dose)

[3] = test system: blood pressure of genetically-hypertensive rats; experiment: lowering of blood pressure of genetically-hypertensive rats, oral, once daily on 10 consecutive days; assay type: in vivo, rat (Kyoto strain); details: 6 h after application
Experimental: as §1
In Table III there is represented the lowering of the blood pressure of genetically-hypertensive rats in the case of oral application of 3-hydrazino-5,7-propano-5,6,7,8-tetrahydro-6-pyrido[4,3-c]pyridazine carboxylic acid ethyl ester fumarate. In each case 8 animals received the stated dose once daily on 10 consecutive days.
Lowering of the blood pressure of genetically-hypertensive rats
(in mm Hg) in the case of administration of different doses of No. 4
(in mg/kg rat), measured on 10 consecutive days (6 hours after
application in each case).
Doses: a = 1.25 mg/kg; b = 2.5 mg/kg; c = 5.0 mg/kg; d = 10.0 mg/kg.

[4] = 5 mg/kg per os on 2nd day (half of original dose)
[5] = 5 mg/kg per os on 2nd day (half of original dose), 24 h

## CCOC(=O)N1C2CCCC1c1cc(NN)nnc1C2 (stereo not shown) [3-hydrazino-5,7-propano-5,6,7,8-tetrahydro-6-pyrido[4,3-c]pyridazine carboxylic acid ethyl ester]
[1]; awake genetically-hypertensive rats, compared with hydralazine and known compounds
  anti-hypertensive effectiveness and duration of action, in words: considerably higher anti-hypertensive effectiveness and longer duration of action than hydralazine

## CCOC(=O)N1CCc2nnc(NN)cc2C1 [Serial No. 1, 3-hydrazino-5,6,7,8-tetrahydro-6-pyrido[4,3-c]pyridazine carboxylic acid ethyl ester, reference compound]
[1]; [4]
  BP (% change), 2nd day, 6 h: -17.5%
[1]; 10 mg/kg per os
  BP (% change), 1st day, 6 h: -24.5%
[1]; 10 mg/kg per os, 24 h
  BP (% change), 1st day, 24 h: -6.0%
[1]
  relation between percentage change of the blood pressure (BP) and the applied dose: 0.404
  Th. E. (therapeutic effectiveness) [Serial No. 3 = 1.0]: 8.3
[1]; Table II, dose 21.05 μmole/kg
  BP (% change) 2nd day, 24 h: -8.5%
[2]
  LD50 at 336 h: 340 mg/kg

## CCOC(=O)N1CCc2nnc(NN)c(C)c2C1.Cl [Serial No. 2, 3-hydrazino-4-methyl-5,6,7,8-tetrahydro-6-pyrido[4,3-c]pyridazine carboxylic acid ethyl ester hydrochloride, reference compound]
[1]; 20 mg/kg per os
  BP (% change), 1st day, 6 h: -4.7%
[1]; 20 mg/kg per os, 24 h
  BP (% change), 1st day, 24 h: -1.0%
[1]; 20 mg/kg per os, 2nd day
  BP (% change), 2nd day, 6 h: -4.7%
[1]; 20 mg/kg per os, 2nd day, 24 h
  BP (% change) 2nd day, 24 h: -3.7%
[1]
  relation between percentage change of the blood pressure (BP) and the applied dose: 0.046
  Th. E. (therapeutic effectiveness) [Serial No. 3 = 1.0]: 0.9
[1]; Table II, dose 79.6 μmole/kg
  BP (% change) 2nd day, 24 h: -3.7%

## NNc1nncc2ccccc12 [Serial No. 3, 1-hydrazinophthalazine, reference compound]
[1]; 20 mg/kg per os
  BP (% change), 1st day, 6 h: -10.7%
[1]; 20 mg/kg per os, 24 h
  BP (% change), 1st day, 24 h: -1.5%
[1]; 20 mg/kg per os, 2nd day
  BP (% change), 2nd day, 6 h: -11.8%
[1]; 20 mg/kg per os, 2nd day, 24 h
  BP (% change) 2nd day, 24 h: -6.1%
[1]
  relation between percentage change of the blood pressure (BP) and the applied dose: 0.0488
  Th. E. (therapeutic effectiveness) [Serial No. 3 = 1.0]: 1.0
[1]; Table II, dose 125.0 μmole/kg
  BP (% change) 2nd day, 24 h: -6.1%

## CCOC(=O)N1C2CCCC1c1cc(NN)nnc1C2.O=C(O)/C=C/C(=O)O (stereo not shown) [Serial No. 4, 3-hydrazino-5,7-propano-5,6,7,8-tetrahydro-6-pyrido[4,3-c]pyridazine carboxylic acid ethyl ester fumarate]
[1]; 2.5 mg/kg per os
  BP (% change), 1st day, 6 h: -9.0%
[1]; 2.5 mg/kg per os, 24 h
  BP (% change), 1st day, 24 h: -11.8%
[1]; 2.5 mg/kg per os, 2nd day
  BP (% change), 2nd day, 6 h: -15.9%
[1]; 2.5 mg/kg per os, 2nd day, 24 h
  BP (% change) 2nd day, 24 h: -17.1%
[1]
  relation between percentage change of the blood pressure (BP) and the applied dose: 1.90
  Th. E. (therapeutic effectiveness) [Serial No. 3 = 1.0]: 38.9
[1]; Table II, dose 9.0 μmole/kg
  BP (% change) 2nd day, 24 h: -17.1%
[2]
  LD50 at 336 h: 400 mg/kg
[3]; day 1, a = 1.25 mg/kg oral
  Lowering of the blood pressure: 25.0 mm Hg
[3]; day 1, b = 2.5 mg/kg oral
  Lowering of the blood pressure: 35.0 mm Hg
[3]; day 1, c = 5.0 mg/kg oral
  Lowering of the blood pressure: 48.0 mm Hg
[3]; day 1, d = 10.0 mg/kg oral
  Lowering of the blood pressure: 58.0 mm Hg
[3]; day 2, a = 1.25 mg/kg oral
  Lowering of the blood pressure: 14.0 mm Hg
[3]; day 2, b = 2.5 mg/kg oral
  Lowering of the blood pressure: 59.0 mm Hg
[3]; day 2, c = 5.0 mg/kg oral
  Lowering of the blood pressure: 67.0 mm Hg
[3]; day 2, d = 10.0 mg/kg oral
  Lowering of the blood pressure: 77.5 mm Hg
[3]; day 3, a = 1.25 mg/kg oral
  Lowering of the blood pressure: 20.0 mm Hg
[3]; day 3, b = 2.5 mg/kg oral
  Lowering of the blood pressure: 44.0 mm Hg
[3]; day 3, c = 5.0 mg/kg oral
  Lowering of the blood pressure: 53.0 mm Hg
[3]; day 3, d = 10.0 mg/kg oral
  Lowering of the blood pressure: 66.0 mm Hg
[3]; day 4, a = 1.25 mg/kg oral
  Lowering of the blood pressure: 21.0 mm Hg
[3]; day 4, b = 2.5 mg/kg oral
  Lowering of the blood pressure: 67.0 mm Hg
[3]; day 4, c = 5.0 mg/kg oral
  Lowering of the blood pressure: 72.0 mm Hg
[3]; day 4, d = 10.0 mg/kg oral
  Lowering of the blood pressure: 74.0 mm Hg
[3]; day 7, a = 1.25 mg/kg oral
  Lowering of the blood pressure: 27.0 mm Hg
[3]; day 7, b = 2.5 mg/kg oral
  Lowering of the blood pressure: 53.0 mm Hg
[3]; day 7, c = 5.0 mg/kg oral
  Lowering of the blood pressure: 59.0 mm Hg
[3]; day 7, d = 10.0 mg/kg oral
  Lowering of the blood pressure: 69.0 mm Hg
[3]; day 8, a = 1.25 mg/kg oral
  Lowering of the blood pressure: 21.0 mm Hg
[3]; day 8, b = 2.5 mg/kg oral
  Lowering of the blood pressure: 66.0 mm Hg
[3]; day 8, c = 5.0 mg/kg oral
  Lowering of the blood pressure: 67.0 mm Hg
[3]; day 8, d = 10.0 mg/kg oral
  Lowering of the blood pressure: 66.0 mm Hg
[3]; day 9, b = 2.5 mg/kg oral
  Lowering of the blood pressure: 64.0 mm Hg
[3]; day 9, c = 5.0 mg/kg oral
  Lowering of the blood pressure: 63.0 mm Hg
[3]; day 9, d = 10.0 mg/kg oral
  Lowering of the blood pressure: 61.0 mm Hg
[3]; day 10, b = 2.5 mg/kg oral
  Lowering of the blood pressure: 71.0 mm Hg
[3]; day 10, c = 5.0 mg/kg oral
  Lowering of the blood pressure: 66.0 mm Hg
[3]; day 10, d = 10.0 mg/kg oral
  Lowering of the blood pressure: 63.0 mm Hg

## CC(C)=NNc1cc2c(nn1)CC1CCCC2N1C(=O)c1ccccc1 (stereo not shown) [Serial No. 5, 6-benzoyl-3-isopropylidenehydrazino-5,7-propano-5,6,7,8-tetrahydropyrido[4,3-c]pyridazine]
[1]; [4]
  BP (% change), 2nd day, 6 h: -15.2%
[1]; [5]
  BP (% change) 2nd day, 24 h: -12.8%
[1]; 10 mg/kg per os
  BP (% change), 1st day, 6 h: -20.1%
[1]; 10 mg/kg per os, 24 h
  BP (% change), 1st day, 24 h: -4.4%
[1]
  relation between percentage change of the blood pressure (BP) and the applied dose: 0.87
  Th. E. (therapeutic effectiveness) [Serial No. 3 = 1.0]: 17.8
[1]; Table II, dose 14.3 μmole/kg
  BP (% change) 2nd day, 24 h: -12.8%
[2]
  LD50 at 336 h: 510 mg/kg

## CCOC(=O)N1C2CCC1c1cc(NN=C(C)C)nnc1C2 (stereo not shown) [Serial No. 6, 3-isopropylidenehydrazino-5,7-ethano-5,6,7,8-tetrahydro-6-pyrido[4,3-c]-pyridazine carboxylic acid ethyl ester]
[1]; [4]
  BP (% change), 2nd day, 6 h: -21.5%
[1]; [5]
  BP (% change) 2nd day, 24 h: -23.1%
[1]; 10 mg/kg per os
  BP (% change), 1st day, 6 h: -23.1%
[1]; 10 mg/kg per os, 24 h
  BP (% change), 1st day, 24 h: -20.5%
[1]
  relation between percentage change of the blood pressure (BP) and the applied dose: 1.40
  Th. E. (therapeutic effectiveness) [Serial No. 3 = 1.0]: 28.7
[1]; Table II, dose 16.5 μmole/kg
  BP (% change) 2nd day, 24 h: -23.1%
[2]
  LD50 at 336 h: 300 mg/kg
